Measured values as given in the NIST ThermoML archive (doi:10.1016/j.jct.2015.01.012).
Values joined by “and” are separate entries in the source; they are usually repeats but may differ in a detail not shown here. Equal entries are not always repeated.

Details: Crystal, Calculated from knudsen effusion weight loss

CCn1c(-c2ccccc2)cc2ccccc21 [1-ethyl-2-phenylindole]
Details	vapor or sublimation pressure
327.18 K	7.2e-05 kPa and 6.9e-05 kPa and 7.1e-05 kPa
329.18 K	9.5e-05 kPa and 9.1e-05 kPa and 8.9e-05 kPa
331.09 K	0.000115 kPa and 0.000114 kPa and 0.000119 kPa
333.18 K	0.000144 kPa and 0.000143 kPa and 0.000145 kPa
335.18 K	0.00019 kPa and 0.000184 kPa and 0.000192 kPa
337.19 K	0.000239 kPa and 0.00024 kPa
339.17 K	0.000291 kPa and 0.000287 kPa and 0.000307 kPa
341.17 K	0.000379 kPa and 0.000368 kPa and 0.000387 kPa
343.08 K	0.000472 kPa and 0.000478 kPa
345.16 K	0.000624 kPa and 0.000605 kPa and 0.000625 kPa
347.08 K	0.000779 kPa and 0.000766 kPa and 0.000775 kPa
349.08 K	0.000974 kPa and 0.000987 kPa and 0.000986 kPa

c1ccc(-c2cc3ccccc3[nH]2)cc1 [2-phenyl-1H-indole]
Details	vapor or sublimation pressure
360.16 K	0.000122 kPa and 0.000119 kPa and 0.000116 kPa
362.11 K	0.000157 kPa and 0.000149 kPa and 0.000155 kPa
364.08 K	0.000184 kPa and 0.000182 kPa and 0.000176 kPa
366.16 K	0.000217 kPa and 0.000214 kPa and 0.000227 kPa
368.13 K	0.00027 kPa and 0.000262 kPa and 0.000278 kPa
370.1 K	0.000331 kPa and 0.000325 kPa and 0.000324 kPa
372.16 K	0.000392 kPa and 0.000393 kPa and 0.000412 kPa
374.12 K	0.000491 kPa and 0.000456 kPa and 0.0005 kPa
376.1 K	0.00059 kPa and 0.000574 kPa and 0.000592 kPa
378.15 K	0.000701 kPa and 0.000693 kPa and 0.000735 kPa
380.12 K	0.000868 kPa and 0.000885 kPa and 0.000832 kPa
382.1 K	0.001023 kPa and 0.001052 kPa and 0.001046 kPa

Cn1c(-c2ccccc2)cc2ccccc21 [1-methyl-2-phenylindole]
Details	vapor or sublimation pressure
331.17 K	7.4e-05 kPa and 7.7e-05 kPa
333.17 K	0.000104 kPa and 0.000102 kPa and 9.9e-05 kPa
335.1 K	0.00013 kPa and 0.000126 kPa and 0.000128 kPa
337.18 K	0.000157 kPa and 0.000154 kPa and 0.000158 kPa
339.21 K	0.000204 kPa and 0.000197 kPa and 0.000214 kPa
341.12 K	0.000252 kPa and 0.000254 kPa and 0.000251 kPa
343.17 K	0.000316 kPa and 0.000308 kPa and 0.000323 kPa
345.14 K	0.000404 kPa and 0.00039 kPa and 0.000414 kPa
347.08 K	0.000497 kPa and 0.000501 kPa and 0.000494 kPa
349.17 K	0.000593 kPa and 0.000586 kPa and 0.000585 kPa
351.21 K	0.000772 kPa and 0.000745 kPa
353.12 K	0.00092 kPa and 0.000943 kPa and 0.000939 kPa
